What was measured:
Test in all cases: biochemical
Parameters in all cases: DiscoverX KinomeScan competition binding assay across human kinases; per cent of control at 10 and 100 uM
[1] = molecular target: T1, ABL1(M351T)-phosphorylated (Homo sapiens, UniProt P00519, M351T); details: competition binding, % of control; read-out: Percent Control (100 uM Levosimendan)
T1 construct: phosphorylated
Procedure, shortened: (§1)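 KinomeScan competition binding was run across a human kinase panel at 10 μM and 100 μM levosimendan. Results are %control = (test − positive control)/(negative control − positive control) × 100.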

ABL2 = ABL2 (Homo sapiens, UniProt P42684); details: competition binding, % of control; read-out: Percent Control (100 uM Levosimendan)
Procedure, shortened: as §1

AKT1 = AKT1 (Homo sapiens, UniProt P31749); details: competition binding, % of control; read-out: Percent Control (100 uM Levosimendan)
Procedure, shortened: as §1

BRSK2 = BRSK2 (Homo sapiens, UniProt Q8IWQ3); details: competition binding, % of control; read-out: Percent Control (100 uM Levosimendan)
Procedure, shortened: as §1

CDC2L5 = molecular target: T2, CDC2L5 (Homo sapiens, UniProt Q14004); details: competition binding, % of control; read-out: Percent Control (100 uM Levosimendan)
T2 construct: gene CDK13
Procedure, shortened: as §1

DCAMKL1 = molecular target: T3, DCAMKL1 (Homo sapiens, UniProt O15075); details: competition binding, % of control; read-out: Percent Control (100 uM Levosimendan)
T3 construct: gene DCLK1
Procedure, shortened: as §1

DMPK = DMPK (Homo sapiens, UniProt Q09013); details: competition binding, % of control
DMPK, sequence (Q09013 whole entry): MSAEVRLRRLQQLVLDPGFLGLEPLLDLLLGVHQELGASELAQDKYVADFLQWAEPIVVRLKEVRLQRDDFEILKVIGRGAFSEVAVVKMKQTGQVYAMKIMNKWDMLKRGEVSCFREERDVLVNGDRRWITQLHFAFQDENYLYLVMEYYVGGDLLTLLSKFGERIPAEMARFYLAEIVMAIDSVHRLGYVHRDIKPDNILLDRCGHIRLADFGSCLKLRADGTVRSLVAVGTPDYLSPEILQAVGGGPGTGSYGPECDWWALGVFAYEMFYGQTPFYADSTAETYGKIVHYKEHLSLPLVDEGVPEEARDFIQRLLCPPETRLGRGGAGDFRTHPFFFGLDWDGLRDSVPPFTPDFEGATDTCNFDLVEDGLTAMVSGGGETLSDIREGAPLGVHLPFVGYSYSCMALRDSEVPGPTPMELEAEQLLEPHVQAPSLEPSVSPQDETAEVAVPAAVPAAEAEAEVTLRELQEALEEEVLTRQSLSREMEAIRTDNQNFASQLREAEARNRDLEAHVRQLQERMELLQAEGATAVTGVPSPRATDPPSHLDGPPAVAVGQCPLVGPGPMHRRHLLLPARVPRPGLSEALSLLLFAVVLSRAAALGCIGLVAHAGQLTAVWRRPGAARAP
Procedure, shortened: as §1

FGFR1 = FGFR1 (Homo sapiens, UniProt P11362); details: competition binding, % of control
FGFR1, sequence (P11362 whole entry): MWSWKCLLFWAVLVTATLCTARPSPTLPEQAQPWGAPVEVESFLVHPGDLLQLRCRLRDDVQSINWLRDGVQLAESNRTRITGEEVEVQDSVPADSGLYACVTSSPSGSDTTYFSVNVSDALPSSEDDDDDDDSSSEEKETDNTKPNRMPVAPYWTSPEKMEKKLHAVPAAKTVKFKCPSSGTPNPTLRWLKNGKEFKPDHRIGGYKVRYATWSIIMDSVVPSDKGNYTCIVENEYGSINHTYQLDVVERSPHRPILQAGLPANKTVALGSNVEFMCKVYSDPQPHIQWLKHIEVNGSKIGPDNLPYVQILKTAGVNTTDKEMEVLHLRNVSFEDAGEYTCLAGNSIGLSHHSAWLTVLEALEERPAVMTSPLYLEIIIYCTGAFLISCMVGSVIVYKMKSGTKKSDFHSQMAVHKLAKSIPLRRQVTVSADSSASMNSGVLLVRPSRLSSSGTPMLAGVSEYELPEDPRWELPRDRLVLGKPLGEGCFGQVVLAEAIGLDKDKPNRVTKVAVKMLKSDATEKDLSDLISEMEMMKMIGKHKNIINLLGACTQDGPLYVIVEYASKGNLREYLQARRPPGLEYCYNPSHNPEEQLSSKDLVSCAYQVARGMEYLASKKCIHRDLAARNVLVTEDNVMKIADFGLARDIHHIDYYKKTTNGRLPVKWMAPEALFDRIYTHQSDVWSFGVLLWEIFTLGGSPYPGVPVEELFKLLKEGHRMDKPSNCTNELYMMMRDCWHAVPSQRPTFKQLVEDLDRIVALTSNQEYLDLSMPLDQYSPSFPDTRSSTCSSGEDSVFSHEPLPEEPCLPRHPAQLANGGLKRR
Procedure, shortened: as §1

GRK4 = GRK4 (Homo sapiens, UniProt P32298); details: competition binding, % of control; read-out: Percent Control (100 uM Levosimendan)
Procedure, shortened: as §1

LIMK2 = LIMK2 (Homo sapiens, UniProt P53671); details: competition binding, % of control; read-out: Percent Control (100 uM Levosimendan)
LIMK2, sequence (P53671 whole entry): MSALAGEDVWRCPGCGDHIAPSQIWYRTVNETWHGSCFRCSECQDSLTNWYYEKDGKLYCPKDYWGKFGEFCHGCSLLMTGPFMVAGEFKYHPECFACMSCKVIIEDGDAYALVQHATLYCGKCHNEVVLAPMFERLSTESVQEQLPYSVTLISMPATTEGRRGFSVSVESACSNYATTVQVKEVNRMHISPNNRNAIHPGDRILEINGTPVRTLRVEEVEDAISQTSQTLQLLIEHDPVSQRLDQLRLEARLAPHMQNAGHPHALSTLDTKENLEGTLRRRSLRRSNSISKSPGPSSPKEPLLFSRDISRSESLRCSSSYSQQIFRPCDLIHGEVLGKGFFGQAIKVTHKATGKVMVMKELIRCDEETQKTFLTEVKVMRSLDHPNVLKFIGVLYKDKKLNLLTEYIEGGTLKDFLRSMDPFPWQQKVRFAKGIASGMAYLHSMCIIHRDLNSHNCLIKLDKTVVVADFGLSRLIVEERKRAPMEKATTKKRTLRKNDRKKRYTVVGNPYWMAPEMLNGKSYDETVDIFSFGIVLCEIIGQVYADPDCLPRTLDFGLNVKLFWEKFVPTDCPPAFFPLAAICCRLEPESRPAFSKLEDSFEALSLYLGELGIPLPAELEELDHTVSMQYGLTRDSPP
Procedure, shortened: as §1

MAP3K1 = MAP3K1 (Homo sapiens, UniProt Q13233); details: competition binding, % of control; read-out: Percent Control (100 uM Levosimendan)
MAP3K1, sequence (Q13233 whole entry): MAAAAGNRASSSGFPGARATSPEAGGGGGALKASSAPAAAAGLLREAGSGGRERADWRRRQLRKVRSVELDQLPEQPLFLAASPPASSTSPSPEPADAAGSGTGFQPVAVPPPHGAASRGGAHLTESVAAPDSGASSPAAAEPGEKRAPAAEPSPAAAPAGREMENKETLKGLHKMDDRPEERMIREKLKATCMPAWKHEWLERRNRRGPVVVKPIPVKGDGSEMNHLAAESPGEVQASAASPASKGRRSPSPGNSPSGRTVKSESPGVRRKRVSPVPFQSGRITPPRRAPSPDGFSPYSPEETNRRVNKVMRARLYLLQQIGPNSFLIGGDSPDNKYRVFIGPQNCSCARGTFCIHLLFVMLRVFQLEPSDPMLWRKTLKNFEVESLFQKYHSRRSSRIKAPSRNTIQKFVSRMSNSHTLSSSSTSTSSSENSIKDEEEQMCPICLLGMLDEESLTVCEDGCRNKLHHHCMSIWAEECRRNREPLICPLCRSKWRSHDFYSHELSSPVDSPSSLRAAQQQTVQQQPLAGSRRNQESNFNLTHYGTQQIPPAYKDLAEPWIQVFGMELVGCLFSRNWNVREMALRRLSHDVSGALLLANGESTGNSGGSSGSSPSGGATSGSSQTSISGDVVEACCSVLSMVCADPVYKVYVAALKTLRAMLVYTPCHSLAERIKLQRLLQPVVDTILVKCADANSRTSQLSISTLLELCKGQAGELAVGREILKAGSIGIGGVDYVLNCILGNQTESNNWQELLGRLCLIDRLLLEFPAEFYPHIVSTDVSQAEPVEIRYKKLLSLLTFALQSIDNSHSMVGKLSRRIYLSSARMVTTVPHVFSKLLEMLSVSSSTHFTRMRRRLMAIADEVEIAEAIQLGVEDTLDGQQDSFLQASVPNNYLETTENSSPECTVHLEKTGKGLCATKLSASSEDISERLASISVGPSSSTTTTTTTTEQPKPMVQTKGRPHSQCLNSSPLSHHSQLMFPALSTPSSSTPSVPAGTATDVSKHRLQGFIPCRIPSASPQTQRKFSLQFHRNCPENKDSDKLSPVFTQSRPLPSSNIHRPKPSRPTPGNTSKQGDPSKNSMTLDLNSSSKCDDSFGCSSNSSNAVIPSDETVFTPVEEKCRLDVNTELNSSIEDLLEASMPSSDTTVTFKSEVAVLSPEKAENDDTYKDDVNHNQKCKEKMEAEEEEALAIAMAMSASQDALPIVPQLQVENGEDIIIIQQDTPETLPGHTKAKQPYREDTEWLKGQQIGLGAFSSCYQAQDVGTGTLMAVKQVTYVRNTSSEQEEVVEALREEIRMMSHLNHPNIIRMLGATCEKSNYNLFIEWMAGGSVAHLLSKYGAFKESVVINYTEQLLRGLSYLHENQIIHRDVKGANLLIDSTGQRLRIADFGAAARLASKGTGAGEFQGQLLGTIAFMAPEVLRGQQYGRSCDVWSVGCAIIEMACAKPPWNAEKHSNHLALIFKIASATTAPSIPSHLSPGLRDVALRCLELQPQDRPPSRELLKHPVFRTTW
Procedure, shortened: as §1

MARK3 = MARK3 (Homo sapiens, UniProt P27448); details: competition binding, % of control; read-out: Percent Control (100 uM Levosimendan)
Procedure, shortened: as §1

PAK3 = PAK3 (Homo sapiens, UniProt O75914); details: competition binding, % of control; read-out: Percent Control (100 uM Levosimendan)
PAK3, sequence (O75914 whole entry): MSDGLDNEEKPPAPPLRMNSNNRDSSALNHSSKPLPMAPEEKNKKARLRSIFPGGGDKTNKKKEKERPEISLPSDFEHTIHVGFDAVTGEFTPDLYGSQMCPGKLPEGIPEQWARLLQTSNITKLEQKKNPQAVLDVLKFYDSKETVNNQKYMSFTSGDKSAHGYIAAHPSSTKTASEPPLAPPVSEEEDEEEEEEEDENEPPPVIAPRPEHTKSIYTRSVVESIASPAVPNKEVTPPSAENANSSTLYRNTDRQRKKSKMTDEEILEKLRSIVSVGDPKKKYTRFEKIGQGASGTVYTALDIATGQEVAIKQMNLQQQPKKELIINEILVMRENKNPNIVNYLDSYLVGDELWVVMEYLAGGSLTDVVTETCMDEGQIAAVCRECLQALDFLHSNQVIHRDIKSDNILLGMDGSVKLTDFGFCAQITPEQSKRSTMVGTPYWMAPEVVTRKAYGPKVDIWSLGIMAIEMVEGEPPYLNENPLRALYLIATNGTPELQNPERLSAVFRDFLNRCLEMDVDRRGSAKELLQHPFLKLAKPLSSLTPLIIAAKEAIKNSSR
Procedure, shortened: as §1

PHKG2 = PHKG2 (Homo sapiens, UniProt P15735); details: competition binding, % of control
PHKG2, sequence (P15735 whole entry): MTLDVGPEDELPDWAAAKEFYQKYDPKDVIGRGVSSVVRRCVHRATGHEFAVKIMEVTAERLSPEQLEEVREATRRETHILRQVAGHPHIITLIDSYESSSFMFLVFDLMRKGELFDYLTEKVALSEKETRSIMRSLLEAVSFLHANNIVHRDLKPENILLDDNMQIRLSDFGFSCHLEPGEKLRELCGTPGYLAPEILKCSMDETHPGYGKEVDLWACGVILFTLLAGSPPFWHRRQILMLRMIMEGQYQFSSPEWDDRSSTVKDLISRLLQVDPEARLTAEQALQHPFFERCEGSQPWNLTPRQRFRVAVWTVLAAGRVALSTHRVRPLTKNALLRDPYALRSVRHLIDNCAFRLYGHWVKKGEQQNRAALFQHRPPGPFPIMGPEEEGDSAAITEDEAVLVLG
Procedure, shortened: as §1

PRP4 = molecular target: T4, PRP4 (Homo sapiens, UniProt Q13523); details: competition binding, % of control; read-out: Percent Control (100 uM Levosimendan)
T4 construct: gene PRPF4B
Procedure, shortened: as §1

RIPK1 = RIPK1 (Homo sapiens, UniProt Q13546); details: competition binding, % of control; read-out: Percent Control (100 uM Levosimendan)
Procedure, shortened: as §1

RIPK5 = molecular target: T5, RIPK5 (Homo sapiens, UniProt Q6XUX3); details: competition binding, % of control; read-out: Percent Control (100 uM Levosimendan)
T5 construct: gene DSTYK
Procedure, shortened: as §1

[2] = molecular target: T6, RSK3(Kin.Dom.1-N-terminal) (Homo sapiens, UniProt Q15349); details: competition binding, % of control; read-out: Percent Control (100 uM Levosimendan)
T6 construct: gene RPS6KA2; Kin.Dom.1-N-terminal
Procedure, shortened: as §1

VRK2 = VRK2 (Homo sapiens, UniProt Q86Y07); details: competition binding, % of control; read-out: Percent Control (100 uM Levosimendan)
VRK2, sequence (Q86Y07 whole entry): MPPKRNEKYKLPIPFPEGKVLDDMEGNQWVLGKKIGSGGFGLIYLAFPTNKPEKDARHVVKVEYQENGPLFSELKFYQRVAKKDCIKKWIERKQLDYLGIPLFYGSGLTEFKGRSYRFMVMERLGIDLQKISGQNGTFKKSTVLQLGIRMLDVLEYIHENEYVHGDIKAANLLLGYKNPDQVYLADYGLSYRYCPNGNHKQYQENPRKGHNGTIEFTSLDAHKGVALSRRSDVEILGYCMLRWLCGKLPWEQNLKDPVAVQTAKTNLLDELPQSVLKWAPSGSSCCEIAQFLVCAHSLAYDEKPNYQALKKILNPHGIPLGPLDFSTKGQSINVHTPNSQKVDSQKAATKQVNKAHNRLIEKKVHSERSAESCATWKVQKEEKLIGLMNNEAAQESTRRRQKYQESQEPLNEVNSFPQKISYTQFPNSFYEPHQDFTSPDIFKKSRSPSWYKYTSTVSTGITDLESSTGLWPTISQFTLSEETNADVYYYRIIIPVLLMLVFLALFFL
Procedure, shortened: as §1

[3] = read-out: Percent Control (10 uM Levosimendan)
[4] = read-out: Percent Control (100 uM Levosimendan)

- remaining binding at 100 µM [1]: 79%
- remaining binding at 100 µM (ABL2): 89%
- remaining binding at 100 µM (AKT1): 56%
- remaining binding at 100 µM (BRSK2): 100%
- remaining binding at 100 µM (CDC2L5): 100%
- remaining binding at 100 µM (DCAMKL1): 67%
- remaining binding at 10 µM (DMPK; [3]): 100%
- remaining binding at 100 µM (DMPK; [4]): 29%
- remaining binding at 10 µM (FGFR1; [3]): 98%
- remaining binding at 100 µM (FGFR1; [4]): 50%
- remaining binding at 100 µM (GRK4): 100%
- remaining binding at 100 µM (LIMK2): 87%
- remaining binding at 100 µM (MAP3K1): 100%
- remaining binding at 100 µM (MARK3): 95%
- remaining binding at 100 µM (PAK3): 99%
- remaining binding at 10 µM (PHKG2; [3]): 55%
- remaining binding at 100 µM (PHKG2; [4]): 47%
- remaining binding at 100 µM (PRP4): 100%
- remaining binding at 100 µM (RIPK1): 73%
- remaining binding at 100 µM (RIPK5): 60%
- remaining binding at 100 µM [2]: 100%
- remaining binding at 100 µM (VRK2): 69%
Compound: C[C@@H]1CC(=O)NN=C1c1ccc(NN=C(C#N)C#N)cc1 [levosimendan]

From PMC6576746, “Rational discovery of dual-indication multi-target PDE/Kinase inhibitor for precision anti-cancer therapy using structural systems pharmacology” (PLoS Computational Biology, 2019)
